The values below come from ChEMBL document CHEMBL3621085, “Tetrazole regioisomers in the development of nitro group-containing antitubercular agents” (Medchemcomm, 2015).

In brackets after ≈: the same amount, converted by molar mass.

Holding throughout (assay type): functional
The subject of assay [1] is Mycobacterium kansasii. Kind of assay: Antimycobacterial activity against Mycobacterium kansasii My 235/80 after 7 days by micromethod. As to conditions: My 235/80, 168 h.
Assay [2] deals with Mycobacterium tuberculosis. Kind of assay: Antimycobacterial activity against Mycobacterium tuberculosis My 331/88 after 14 days by micromethod. The settings on record: My 331/88, 336 h.
The test system of assay [3] is Mycobacterium kansasii. The assay can be described thus: Antimycobacterial activity against Mycobacterium kansasii 6509/96 after 21 days by micromethod. The settings on record: 6509/96, 504 h.
Assay [4] concerns Mycobacterium kansasii. The assay can be described thus: Antimycobacterial activity against Mycobacterium kansasii My 235/80 after 21 days by micromethod. As to conditions: My 235/80, 504 h.
Assay [5] concerns Mycobacterium avium. Kind of assay: Antimycobacterial activity against Mycobacterium avium My 330/88 after 14 days by micromethod. As to conditions: My 330/88, 336 h.
Assay [6] concerns Mycobacterium kansasii. Kind of assay: Antimycobacterial activity against Mycobacterium kansasii 6509/96 after 14 days by micromethod. The settings on record: 6509/96, 336 h.
The subject of assay [7] is Mycobacterium avium. Kind of assay: Antimycobacterial activity against Mycobacterium avium My 330/88 after 21 days by micromethod. The settings on record: My 330/88, 504 h.
Assay [8] has as its system Mycobacterium kansasii. The assay can be described thus: Antimycobacterial activity against Mycobacterium kansasii 6509/96 after 7 days by micromethod. The settings on record: 6509/96, 168 h.
Assay [9] has as its system Mycobacterium tuberculosis. Kind of assay: Antimycobacterial activity against Mycobacterium tuberculosis My 331/88 after 21 days by micromethod. As to conditions: My 331/88, 504 h.
The subject of assay [10] is Mycobacterium kansasii. The assay can be described thus: Antimycobacterial activity against Mycobacterium kansasii My 235/80 after 14 days by micromethod. The settings on record: My 235/80, 336 h.

As for `O=[N+]([O-])c1ccc(CSc2nnnn2Cc2ccc([N+](=O)[O-])cc2)cc1`, the minimal inhibitory concentration (MIC) was determined as 250 µM (≈ 93.1 µg/mL) against Mycobacterium kansasii [1]; 500 µM (≈ 186 µg/mL) in assay [2]; 250 µM (≈ 93.1 µg/mL) with Mycobacterium kansasii [3]; 250 µM (≈ 93.1 µg/mL) in the assay on Mycobacterium kansasii [4]; 250 µM (≈ 93.1 µg/mL) against Mycobacterium avium [5]; 250 µM (≈ 93.1 µg/mL) with Mycobacterium kansasii [6]. For the same molecule, the MIC against Mycobacterium avium [7] was 250 µM (≈ 93.1 µg/mL); against Mycobacterium kansasii [8] it was 250 µM (≈ 93.1 µg/mL); in assay [9], 500 µM (≈ 186 µg/mL); in the assay with Mycobacterium kansasii [10], 250 µM (≈ 93.1 µg/mL).
Turning to `O=[N+]([O-])c1ccc(Cn2nnnc2[Se]Cc2ccccc2)c([N+](=O)[O-])c1`, the MIC against Mycobacterium kansasii [1] amounted to 32 µM (≈ 13.4 µg/mL); in assay [2], 1 µM (≈ 0.419 µg/mL); in the assay on Mycobacterium kansasii [3], 125 µM (≈ 52.4 µg/mL); against Mycobacterium kansasii [4], 62 µM (≈ 26 µg/mL); in the assay with Mycobacterium avium [5] it was 16 µM (≈ 6.71 µg/mL); against Mycobacterium kansasii [6] it was 62 µM (≈ 26 µg/mL). Further, the MIC was found to be 32 µM (≈ 13.4 µg/mL) in the assay on Mycobacterium avium [7], 16 µM (≈ 6.71 µg/mL) against Mycobacterium kansasii [8], 2 µM (≈ 0.839 µg/mL) in [9] and 62 µM (≈ 26 µg/mL) against Mycobacterium kansasii [10].
Regarding `COc1ccc(C[Se]c2nnnn2Cc2cc([N+](=O)[O-])cc([N+](=O)[O-])c2)cc1`, the MIC against Mycobacterium kansasii [1] came to 16 µM (≈ 7.19 µg/mL); in assay [2] it was 16 µM (≈ 7.19 µg/mL); against Mycobacterium kansasii [3], 62 µM (≈ 27.9 µg/mL); against Mycobacterium kansasii [4], 62 µM (≈ 27.9 µg/mL); against Mycobacterium avium [5], 125 µM (≈ 56.2 µg/mL); against Mycobacterium kansasii [6], 32 µM (≈ 14.4 µg/mL). In addition, the MIC is 125 µM (≈ 56.2 µg/mL) in the assay with Mycobacterium avium [7], 16 µM (≈ 7.19 µg/mL) in the assay on Mycobacterium kansasii [8], 16 µM (≈ 7.19 µg/mL) in [9] and 32 µM (≈ 14.4 µg/mL) with Mycobacterium kansasii [10].
In the case of `Cn1nnc(SCc2cc([N+](=O)[O-])cc([N+](=O)[O-])c2)n1`, the minimum inhibitory concentration (MIC) in the assay on Mycobacterium kansasii [1] amounted to 4 µM (≈ 1.19 µg/mL); in assay [2], 2 µM (≈ 0.593 µg/mL); in the assay with Mycobacterium kansasii [3], 16 µM (≈ 4.74 µg/mL); against Mycobacterium kansasii [4], 8 µM (≈ 2.37 µg/mL); against Mycobacterium avium [5], 125 µM (≈ 37 µg/mL); against Mycobacterium kansasii [6], 16 µM (≈ 4.74 µg/mL). Further, the MIC in the assay with Mycobacterium avium [7] is 250 µM (≈ 74.1 µg/mL); against Mycobacterium kansasii [8] it was 8 µM (≈ 2.37 µg/mL); in assay [9], 4 µM (≈ 1.19 µg/mL); with Mycobacterium kansasii [10], 8 µM (≈ 2.37 µg/mL).
Consider `Cn1nnc(SCc2ccc([N+](=O)[O-])cc2[N+](=O)[O-])n1`, for which the MIC with Mycobacterium kansasii [1] came to 32 µM (≈ 9.48 µg/mL); in assay [2], 4 µM (≈ 1.19 µg/mL); in the assay with Mycobacterium kansasii [3] it was 125 µM (≈ 37 µg/mL); in the assay on Mycobacterium kansasii [4], 125 µM (≈ 37 µg/mL); with Mycobacterium avium [5] it was 125 µM (≈ 37 µg/mL); with Mycobacterium kansasii [6] it was 125 µM (≈ 37 µg/mL). Also, the MIC stood at 125 µM (≈ 37 µg/mL) in the assay with Mycobacterium avium [7], 32 µM (≈ 9.48 µg/mL) against Mycobacterium kansasii [8], 8 µM (≈ 2.37 µg/mL) in [9] and 125 µM (≈ 37 µg/mL) against Mycobacterium kansasii [10].
On to `Cn1nnnc1SCc1cc([N+](=O)[O-])cc([N+](=O)[O-])c1`, for which the MIC came to 4 µM (≈ 1.19 µg/mL) in the assay with Mycobacterium kansasii [1]; 4 µM (≈ 1.19 µg/mL) in assay [2]; 32 µM (≈ 9.48 µg/mL) in the assay with Mycobacterium kansasii [3]; 32 µM (≈ 9.48 µg/mL) in the assay with Mycobacterium kansasii [4]; 500 µM (≈ 148 µg/mL) against Mycobacterium avium [5]; 32 µM (≈ 9.48 µg/mL) against Mycobacterium kansasii [6]. Besides, the MIC with Mycobacterium avium [7] stood at 1000 µM (≈ 296 µg/mL); in the assay with Mycobacterium kansasii [8] it was 16 µM (≈ 4.74 µg/mL); in [9] it was 8 µM (≈ 2.37 µg/mL); against Mycobacterium kansasii [10] it was 16 µM (≈ 4.74 µg/mL).
With `O=[N+]([O-])c1ccc(C[Se]c2nnn(Cc3ccc([N+](=O)[O-])cc3)n2)cc1`, the MIC was found to be 32 µM (≈ 13.4 µg/mL) in the assay on Mycobacterium kansasii [1]; 62 µM (≈ 26 µg/mL) in assay [2]; 125 µM (≈ 52.4 µg/mL) in the assay on Mycobacterium kansasii [3]; 125 µM (≈ 52.4 µg/mL) in the assay with Mycobacterium kansasii [4]; 250 µM (≈ 105 µg/mL) against Mycobacterium avium [5]; 125 µM (≈ 52.4 µg/mL) against Mycobacterium kansasii [6]. The MIC against Mycobacterium avium [7] came to 250 µM (≈ 105 µg/mL); against Mycobacterium kansasii [8] it was 62 µM (≈ 26 µg/mL); in assay [9], 62 µM (≈ 26 µg/mL); with Mycobacterium kansasii [10], 125 µM (≈ 52.4 µg/mL).
For `Cn1nnc([Se]Cc2ccc([N+](=O)[O-])cc2[N+](=O)[O-])n1`, the MIC turned out to be 32 µM (≈ 11 µg/mL) in the assay on Mycobacterium kansasii [1]; 16 µM (≈ 5.49 µg/mL) in assay [2]; 125 µM (≈ 42.9 µg/mL) against Mycobacterium kansasii [3]; 125 µM (≈ 42.9 µg/mL) in the assay with Mycobacterium kansasii [4]; 62 µM (≈ 21.3 µg/mL) in the assay on Mycobacterium avium [5]; 62 µM (≈ 21.3 µg/mL) against Mycobacterium kansasii [6]. In addition, the MIC is 62 µM (≈ 21.3 µg/mL) with Mycobacterium avium [7], 16 µM (≈ 5.49 µg/mL) in the assay on Mycobacterium kansasii [8], 16 µM (≈ 5.49 µg/mL) in [9] and 125 µM (≈ 42.9 µg/mL) in the assay with Mycobacterium kansasii [10].
For `Cn1nnnc1SCc1ccc([N+](=O)[O-])cc1[N+](=O)[O-]`, the MIC against Mycobacterium kansasii [1] came to 125 µM (≈ 37 µg/mL); in assay [2] it was 16 µM (≈ 4.74 µg/mL); in the assay with Mycobacterium kansasii [3], 500 µM (≈ 148 µg/mL); in the assay on Mycobacterium kansasii [4], 500 µM (≈ 148 µg/mL); in the assay on Mycobacterium avium [5] it was 125 µM (≈ 37 µg/mL); against Mycobacterium kansasii [6], 500 µM (≈ 148 µg/mL). The MIC in the assay on Mycobacterium avium [7] was determined as 500 µM (≈ 148 µg/mL); against Mycobacterium kansasii [8], 125 µM (≈ 37 µg/mL); in assay [9], 16 µM (≈ 4.74 µg/mL); in the assay with Mycobacterium kansasii [10] it was 500 µM (≈ 148 µg/mL).
For the molecule `Cn1nnnc1[Se]Cc1cc([N+](=O)[O-])cc([N+](=O)[O-])c1`, the MIC with Mycobacterium kansasii [1] turned out to be 8 µM (≈ 2.75 µg/mL); in assay [2], 8 µM (≈ 2.75 µg/mL); against Mycobacterium kansasii [3] it was 32 µM (≈ 11 µg/mL); against Mycobacterium kansasii [4], 32 µM (≈ 11 µg/mL); in the assay with Mycobacterium avium [5], 500 µM (≈ 172 µg/mL); in the assay on Mycobacterium kansasii [6], 32 µM (≈ 11 µg/mL). Further, the MIC in the assay with Mycobacterium avium [7] worked out at 500 µM (≈ 172 µg/mL); against Mycobacterium kansasii [8] it was 16 µM (≈ 5.49 µg/mL); in assay [9] it was 8 µM (≈ 2.75 µg/mL); in the assay on Mycobacterium kansasii [10], 32 µM (≈ 11 µg/mL).
